From patent US20090036540A1, “Guanylhydrazones in Methods of Treatment or Diagnosis as Modulators of Signal Transduction” (Cytokine PharmaSciences, Inc., priority 2003, published 2009)

Tested on: Peripheral Blood Mononuclear Cells
Test: PepChip kinome array: in vitro phosphorylation of peptide array by lysates of LPS-stimulated PBMCs
Format: cell-based, human
Conditions: PBMC lysate, 1.0 μM CNI-1493, 100 ng/ml LPS
Procedure: Peripheral Blood Mononuclear Cells (PBMCs) were isolated from peripheral blood from healthy volunteers using standard density-gradient centrifugation over Ficoll-Paque Plus (Amersham Pharmacia Biotech AB, Uppsala, Sweden) after washing in resuspension in IMDM supplemented with 10% FBS, penicillin, streptomycin and amphotericin (hereafter referred to as complete IMDM).
For kinome array samples, 10^7 PBMCs were suspended in 5 ml media (IMDM supplemented with 1.0% human serum). LPS stimulation consisted of a […] (37° C., 5% CO2) with 100 ng/ml LPS (E. coli, serotype 0111:B4). CNI treated PBMCs were maintained in media dosed with 1.0 μM CNI-1493 (Cytokine PharmaSciences, Inc.) 1 hour before and during incubation for LPS stimulation. Stimulations were terminated by an ice-cold PBS wash. PBMCs were lysed in 200 μl cell lysis buffer (20 mM Tris-HCl (pH 7.5), 150 mM NaCl, 1 mM Na2EDTA, 1 mM EGTA, 1% Triton, 2.5 mM sodium pyrophosphate, 1 mM MgCl2, 1 mM beta-glycerophosphate, 1 mM Na3VO4, 1 mM NaF, 1 μg/ml leupeptin, 1 μg/ml aprotinin, 1 mM PMSF) and the volume of the cell lysate were equalised with dH2O. The cell lysates were subsequently cleared on a 0.22 μm filter. PepChip incubation mix was produced by adding 10 μl of filter-cleared activation mix (50% glycerol, 50 μM ATP, 0.05% v/v Brij-35, 0.25 mg/ml BSA, ^33P-γ-ATP (1000 kBq)). Next, the PepChip mix is added onto the chip and the chip is kept at 37° C. in a humidified stove for 90 minutes. Subsequently, the PepChip was washed once with TBST, twice in 2M NaCl and twice in demineralised H2O and air-dry the PepChip slips. The experiments were performed three times in duplicate. The average inter-experimental variance in relative values was less than 5% for all spots.
The chips were exposed to a phosphoimager plate for 72 hours and the spots were analysed on AIDA analysing software. For graphical visualisation of the spots in FIG. 2 the data of four arrays was averaged to eliminate false positives.

C/C(=N\NC(=N)N)c1cc(NC(=O)CCCCCCCCC(=O)Nc2cc(/C(C)=N/NC(=N)N)cc(/C(C)=N/NC(=N)N)c2)cc(/C(C)=N/NC(=N)N)c1 [Semapimod]
LPS + CNI: peptide phosphorylation, Kinase p34cdc2, Substrate Vimentin (Control 192, LPS 214): 300 | LPS + CNI: peptide phosphorylation, Kinase CKII, Substrate Lamin B R (Control 214, LPS 1736): 250 | LPS + CNI: peptide phosphorylation, Kinase p34cdc2, Substrate c-Src (Control 230, LPS 248): 270 | LPS + CNI: peptide phosphorylation, Kinase CKII, Substrate TOPII (Control 231, LPS 900): 900 | LPS + CNI: peptide phosphorylation, Kinase CKII, Substrate Lamin D (Control 242, LPS 822): 320 | LPS + CNI: peptide phosphorylation, Kinase Auto, Substrate PKG (Control 246, LPS 8100): 320 | LPS + CNI: peptide phosphorylation, Kinase GRK, Substrate Tau (Control 248, LPS 230): 250 | LPS + CNI: peptide phosphorylation, Kinase JAK, Substrate STAT1a/b (Control 248, LPS 7704): 231 | LPS + CNI: peptide phosphorylation, Kinase Cdc2, Substrate CKII (Control 268, LPS 1728): 265 | LPS + CNI: peptide phosphorylation, Kinase CytoK Rec, Substrate FPS (Control 270, LPS 5512): 265 | LPS + CNI: peptide phosphorylation, Kinase CK II?, Substrate TOPII (Control 274, LPS 280): 300 | LPS + CNI: peptide phosphorylation, Kinase PKA, Substrate MBP (Control 280, LPS 1250): 265 | LPS + CNI: peptide phosphorylation, Kinase Scr-family?, Substrate PTP-2C (Control 287, LPS 5960): 250 | LPS + CNI: peptide phosphorylation, Kinase PKA, Substrate HSP27 (Control 288, LPS 1072): 298 | LPS + CNI: peptide phosphorylation, Kinase PKC, Substrate HSP27 (Control 291, LPS 280): 300 | LPS + CNI: peptide phosphorylation, Kinase PKA, Substrate v-Rel (Control 291, LPS 2574): 291 | LPS + CNI: peptide phosphorylation, Kinase GSK3, Substrate GS (Control 312, LPS 320): 250 | LPS + CNI: peptide phosphorylation, Kinase p34cdc2, Substrate CKII (Control 320, LPS 560): 291 | LPS + CNI: peptide phosphorylation, Kinase PKA, Substrate Tau (Control 340, LPS 340): 250 | LPS + CNI: peptide phosphorylation, Kinase PKA, Substrate c-Rel (Control 421, LPS 250): 261 | LPS + CNI: peptide phosphorylation, Kinase p34cdc2, Substrate AP-1 (Control 460, LPS 548): 274 | LPS + CNI: peptide phosphorylation, Kinase PKA, Substrate MBP (Control 536, LPS 822): 248 | LPS + CNI: peptide phosphorylation, Kinase CaM-II, Substrate MBP (Control 600, LPS 265): 680 | LPS + CNI: peptide phosphorylation, Kinase PKA, Substrate GS (Control 795, LPS 7980): 340 | LPS + CNI: peptide phosphorylation, Kinase PKA/Ca2+, Substrate Trp-5-MO (Control 1164, LPS 23925): 1305 | LPS + CNI: peptide phosphorylation, Kinase PKA, Substrate GS (Control 1440, LPS 1020): 3450 | LPS + CNI: peptide phosphorylation, Kinase PKC, Substrate Lamin B1 (Control 2016, LPS 268): 1072 | LPS + CNI: peptide phosphorylation, Kinase PKC, Substrate MBP (Control 2376, LPS 198): 319 | LPS + CNI: peptide phosphorylation, Kinase PKA, Substrate P450 (Control 2412, LPS 19980): 265 | LPS + CNI: peptide phosphorylation, Kinase PKC, Substrate ACC-a (Control 2750, LPS 10692): 861 | LPS + CNI: peptide phosphorylation, Kinase CKII, Substrate TOPII (Control 3836, LPS 320): 291 | LPS + CNI: peptide phosphorylation, Kinase Src, Substrate Annexin2 (Control 4438, LPS 8745): 287 | LPS + CNI: peptide phosphorylation, Kinase PKC, Substrate EIF4E (Control 4494, LPS 41272): 6699 | LPS + CNI: peptide phosphorylation, Kinase and Substrate not given (Control 4960, LPS 530): 254 | LPS + CNI: peptide phosphorylation, Kinase CKI, Substrate GS (Control 5616, LPS 13386): 300 | LPS + CNI: peptide phosphorylation, Kinase CaM-II, Substrate Vimentin (Control 6930, LPS 4147): 248 | LPS + CNI: peptide phosphorylation, Kinase Lck/Fyn, Substrate MHC-I (Control 7040, LPS 1370): 230
